The text below walks through data of patent US8889667B2 (Agios Pharmaceuticals, Inc, priority 2010, dated 2014).

Broadly, the AC50 is the concentration at which the activity in the assay is half-maximal. Higher therefore signals weaker potency.

The test addresses PKM2 (Homo sapiens, UniProt P14618). The test is described as follows: PKM2 Assay (activation, LDH-coupled, absorbance at 340 nm). In kind it is biochemical. The procedure, abridged:
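Read-out was the 340 nm NADH absorbance change at 25 °C in an LDH-coupled system (PEP 0.15 mM, NADH 180 μM, ADP 0.7 mM to initiate) in 50 mM Tris pH 7.5, 100 mM KCl, 5 mM MgCl2. PKM2 at 50 ng/well was first preincubated with compound for 30 min at 4 °C. Activation given as AC50.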

Chain of PKM2 (P14618 whole entry): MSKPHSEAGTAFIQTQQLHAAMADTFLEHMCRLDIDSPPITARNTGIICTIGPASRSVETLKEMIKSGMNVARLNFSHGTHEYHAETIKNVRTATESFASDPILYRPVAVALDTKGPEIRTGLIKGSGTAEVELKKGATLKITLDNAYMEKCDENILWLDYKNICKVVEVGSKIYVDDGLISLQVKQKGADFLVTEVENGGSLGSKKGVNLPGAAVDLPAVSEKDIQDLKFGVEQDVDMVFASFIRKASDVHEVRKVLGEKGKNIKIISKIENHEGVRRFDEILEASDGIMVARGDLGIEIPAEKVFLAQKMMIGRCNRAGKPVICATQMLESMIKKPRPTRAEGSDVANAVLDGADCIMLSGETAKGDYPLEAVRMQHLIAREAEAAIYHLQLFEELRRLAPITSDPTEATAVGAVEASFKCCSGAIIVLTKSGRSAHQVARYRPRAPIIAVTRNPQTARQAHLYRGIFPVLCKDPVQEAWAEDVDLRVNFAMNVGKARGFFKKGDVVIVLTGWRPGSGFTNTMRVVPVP

With `CCOC(=O)N1CCN(C(=O)c2ccc(NS(=O)(=O)c3cccc4cccnc34)nc2)CC1` [Compound 446, Ethyl 4-(6-(quinoline-8-sulfonamido)nicotinoyl)piperazine-1-carboxylate], the half-maximal activity concentration (AC50) (Table 5) lay in the range of 1000 to 20000 nM.
As to `CC(C)(C(=O)N1CCN(C(=O)c2ccc(NS(=O)(=O)c3cccc4cccnc34)c(OC(F)(F)F)c2)CC1)c1ccccc1` [Compound 359, N-(4-(4-(2-methyl-2-phenylpropanoyl)piperazine-1-carbonyl)-2-(trifluoromethoxy)phenyl)quinoline-8-sulfonamide], for the setting “Table 5”, the AC50 was 100 to 500 nM.
In the case of `O=C(c1ccc(NS(=O)(=O)c2cccc3cccnc23)cn1)N1CCN(Cc2cc(F)cc(F)c2)CC1` [Compound 414, N-(6-(4-(3,5-difluorobenzyl)piperazine-1-carbonyl)pyridin-3-yl)quinoline-8-sulfonamide], the AC50 (Table 5) lay within 100 to 500 nM.
`O=C(c1ccc(NS(=O)(=O)c2cccc3cccnc23)c(OC(F)(F)F)c1)N1CCN(C2(c3ccccc3)CC2)CC1` [Compound 353, N-(4-(4-(1-phenylcyclopropyl)piperazine-1-carbonyl)-2-(trifluoromethoxy)phenyl)quinoline-8-sulfonamide] had an AC50 (Table 5) of 500 to 1000 nM.
In turn, `O=C(c1ccc(NS(=O)(=O)c2cccc3cccnc23)cc1)N1CCN(C(=O)c2cc[nH]n2)CC1` [Compound 350, N-(4-(4-(1H-pyrazole-3-carbonyl)piperazine-1-carbonyl)phenyl)quinoline-8-sulfonamide] returned an AC50 (Table 5) of 100 to 500 nM.
In turn, `O=C(c1ccc(NS(=O)(=O)c2cccc3cccnc23)c(OC(F)(F)F)c1)N1CCN(Cc2cn[nH]c2)CC1` [Compound 383] showed an AC50 (Table 5) of 100 to 500 nM.
As to `C[C@H]1CN(Cc2ccc(F)c(F)c2F)CCN1C(=O)c1ccc(NS(=O)(=O)c2cccc3cccnc23)cc1` [Compound 154, (S)—N-(4-(2-methyl-4-(2,3,4-trifluorobenzyl)piperazine-1-carbonyl)phenyl)quinoline-8-sulfonamide], where the note is “Table 4”, the AC50 was 100 to 500 nM.
For the setting “Table 5”, `COc1ccc(CN2CCN(C(=O)c3ccc(NS(=O)(=O)c4cccc5cccnc45)c(OC(F)(F)F)c3)CC2)cc1` [Compound 310, N-(4-(4-(4-methoxybenzyl)piperazine-1-carbonyl)-2-(trifluoromethoxy)phenyl)quinoline-8-sulfonamide] came in with an AC50 of 100 to 500 nM.
With `O=C1CN(C(=O)c2ccc(NS(=O)(=O)c3cccc4cccnc34)cc2)CCN1CC1CC1` [Compound 214], the AC50 (Table 4) lay in the range of 100 to 500 nM.
In turn, `O=C(c1ccc(NS(=O)(=O)c2cccc3cccnc23)c(OC(F)(F)F)c1)N1CCN(Cc2ccc(F)c(Cl)c2)CC1` [Compound 376, N-(4-(4-(3-chloro-4-fluorobenzyl)piperazine-1-carbonyl)-2-(trifluoromethoxy)phenyl)quinoline-8-sulfonamide] gave an AC50 (Table 5) of 100 to 500 nM.
`O=C(c1ccc(NS(=O)(=O)c2cccc3cccnc23)c(OC(F)(F)F)c1)N1CCN(CC2CCCC2)CC1` [Compound 336, N-(4-(4-(cyclopentylmethyl)piperazine-1-carbonyl)-2-(trifluoromethoxy)phenyl)quinoline-8-sulfonamide]: the AC50 (Table 5) fell in the range of 500 to 1000 nM.
Regarding `C[C@@H]1CN(CC2CC2)CCN1C(=O)c1ccc(NS(=O)(=O)c2cccc3cccnc23)cc1` [Compound 113, (R)—N-(4-(4-(cyclopropylmethyl)-2-methylpiperazine-1-carbonyl)phenyl)quinoline-8-sulfonamide], the AC50 (Table 4) is less than 100 nM.
`O=C(c1ccc(NS(=O)(=O)c2cccc3cccnc23)cc1)N1CCN(C(=O)c2cncs2)CC1` [Compound 348, N-(4-(4-(thiazole-5-carbonyl)piperazine-1-carbonyl)phenyl)quinoline-8-sulfonamide] showed a concentration at half-maximal activity (AC50) (Table 5) of less than 100 nM.
For the setting “Table 4”, `CC(c1ccc(Cl)c(F)c1)N1CCN(C(=O)c2ccc(NS(=O)(=O)c3cccc4cccnc34)cc2)[C@H](C)C1` (stereo partly drawn) [Compound 157, N-(4-((2R)-4-(1-(4-chloro-3-fluorophenyl)ethyl)-2-methylpiperazine-1-carbonyl)phenyl)quinoline-8-sulfonamide] yielded a concentration at half-maximal activity (AC50) of 100 to 500 nM.
